Read-outs that look alike come from different tables or passages of the source. One block for each compound: values may come before it.
What was measured:
[1] = known competitor or probe guests, cited from earlier work
[2] = on the basis of fluorescence
[3] = Competition 1H-NMR to determine Keq of guests for CB[7]; format: binding
[4] = rats; cited from earlier work
[5] = cited from earlier work
MDA-MB-231 cells = experiment: MTT in vitro cytotoxicity assay; format: cell-based; settings: Homo sapiens, 72 hrs
[6] = Weight, survival and morbidity in the tumor studies; settings: 3 mg/kg/day doxorubicin equivalent, three consecutive days
[7] = mice, i.p., RTECS database; cited from earlier work
MDA-MB-231 (luc+) tumor = experiment: In vivo tumor model with hydrogel adjacent to the tumor; set-up: species or system mice; settings: 3 mg/kg/day doxorubicin equivalent, three consecutive days
[8] = NMR of bupivacaine bound to CB[7]; format: binding; settings: preliminary, based on prior experience
[9] = Solubility of bupivacaine alone and with CB[7]; format: physicochemical

Compound: OC12CC3CC(CC(C3)C1)C2 [1-adamantanol]
Keq for binding to CB[7], literature-reported [1]: 2.3e+10 M⁻¹
Keq for binding to CB[7], literature-reported ([1]; listed as SM2): ~1e+10 M⁻¹

Compound: NCc1ccc(CN)cc1 [p-xylylenediamine]
Keq for binding to CB[7], literature-reported [1]: 1.78e+09 M⁻¹
Keq for binding to CB[7], literature-reported ([1]; listed as SM^−1): ~1e+09 M⁻¹
Keq for binding to CB[7], literature-reported ([1]; listed as pxylylenediamine): 1.84e+09 M⁻¹

fold less accumulation at the hydrogel than the strong conjugate [2]: 3 fold
Keq for binding to CB[7] ([3]; competition 1H-NMR in D2O, association constant): 2.1e+10 M⁻¹
Compound: CN1/C(=C/C=C/C=C/C2=[N+](CCCCCC(=O)NCCC(=O)NC34CC5CC(CC(C5)C3)C4)c3ccc(S(=O)(=O)[O-])cc3C2(C)C)C(C)(C)c2cc(S(=O)(=O)O)ccc21 [Ad-Am-Cy5]

Compound: NCCCCCCN [1,6-diaminohexane]
Keq for binding to CB[7], literature-reported [1]: 8.9e+07 M⁻¹

Compound: cucurbit[7]uril [CB[7]]
LD50 [4]: > 250 mg/kg
degradation in vivo [5]: not appreciably degraded in vivo

Compound: COc1cccc2c1C(=O)c1c(O)c3c(c(O)c1C2=O)C[C@@](O)(C(=O)CO)C[C@@H]3O[C@H]1C[C@H](N)[C@H](O)[C@H](C)O1 [doxorubicin]
IC50 (MDA-MB-231 cells): 490 nM
tolerability (weight, survival) [6]: weight loss and poor survival outcomes
LD50 [7]: 11.2 mg/kg
tumor growth (MDA-MB-231 (luc+) tumor): tumors continued to grow in spite of treatment

binding to CB[7] [8]: ~10^8 M^−1
water solubility ([9]; combined with CB[7]): very good water solubility
solubility ([9]; on its own): sparingly soluble
Compound: CCCCN1CCCCC1C(=O)Nc1c(C)cccc1C (stereo not shown) [bupivacaine]

Compound: CC(=O)NCCC(=O)NC12CC3CC(CC(C3)C1)C2 [Ada-Am-Ac]
Krel ([3]; model guest relative to competitive guest, average of three competition experiments): 0.89

Compound: CN(C)c1ccc2cc3ccc(N(C)C)cc3nc2c1 [Acridine Orange]
Keq for binding to CB[7], literature-reported [1]: 200000 M⁻¹
